From PubChem BioAssay AID328 (DTP/NCI, 2004)
Inconclusive results and toxic doses are left out.

System: BDF1 mice, P388 leukemia ip, median survival T/C
Experiment: NCI In Vivo Anticancer Drug Screen. Data for tumor model P388 Leukemia (intraperitoneal) in B6D2F1 (BDF1) mice
Conditions: endpoint: median survival time, higher = longer survival
Procedure, shortened: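 Reported as T/C, where T is the survival measurement in dosed animals and C the same measurement in vehicle controls.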

[1] = dose: 100.0 mg/kg/injection, schedule: Q01DX009 (ip), vehicle: saline with Tween-80
[2] = dose: 200.0 mg/kg/injection, schedule: Q01DX009 (ip), vehicle: saline with Tween-80
[3] = dose: 100.0 mg/kg/injection, schedule: Q01DX009 (ip), vehicle: Klucel (hydroxypropylcellulose) (HPC)
[4] = dose: 25.0 mg/kg/injection, schedule: Q01DX009 (ip), vehicle: saline with Tween-80
[5] = dose: 50.0 mg/kg/injection, schedule: Q01DX009 (ip), vehicle: saline with Tween-80
[6] = dose: 50.0 mg/kg/injection, schedule: Q01DX009 (ip), vehicle: Klucel (hydroxypropylcellulose) (HPC)

FC(F)(F)c1nc2nc(Br)c(Br)nc2[nH]1
T/C [1]: 100 % of control | T/C (dose: 100.0 mg/kg/injection, schedule: Q04DX003 (ip), vehicle: saline with Tween-80): 87 % of control | T/C [2]: 90 % of control | T/C (dose: 400.0 mg/kg/injection, schedule: Q04DX003 (ip), vehicle: saline with Tween-80): 91 % of control

NC(N)=NC(N)=Nc1ccc([As](=O)(O)O)c(O)c1
T/C (dose: 44.0 mg/kg/injection, schedule: Q01DX009 (ip), vehicle: Klucel (hydroxypropylcellulose) (HPC)): 156 % of control | T/C (dose: 66.0 mg/kg/injection, schedule: Q01DX009 (ip), vehicle: Klucel (hydroxypropylcellulose) (HPC)): 156 % of control | T/C [3]: 169 % of control | T/C (dose: 150.0 mg/kg/injection, schedule: Q01DX009 (ip), vehicle: Klucel (hydroxypropylcellulose) (HPC)): 169 % of control | T/C (dose: 150.0 mg/kg/injection, schedule: Q01DX009 (ip), vehicle: saline): 155 % of control

COc1ccc2c(c1)CCC1(C)C2=CC(=O)/C1=C\[O-].COc1ccc2c(c1)CCC1(C)C2=CC(=O)/C1=C\[O-].[Cu+2] (configuration not stated)
T/C [4]: 95 % of control | T/C [5]: 95 % of control | T/C [1]: 95 % of control

c1ccc(-c2csc3c4ccccc4c4ccccc4[n+]23)cc1
T/C (dose: 0.5 mg/kg/injection, schedule: Q01DX009 (ip), vehicle: saline): 100 % of control | T/C (dose: 1.0 mg/kg/injection, schedule: Q01DX009 (ip), vehicle: saline): 104 % of control | T/C (dose: 2.0 mg/kg/injection, schedule: Q01DX009 (ip), vehicle: saline): 118 % of control | T/C (dose: 4.0 mg/kg/injection, schedule: Q01DX009 (ip), vehicle: saline): 113 % of control | T/C (dose: 8.0 mg/kg/injection, schedule: Q01DX009 (ip), vehicle: saline): 100 % of control

O=C(O)c1ccccc1C(=O)O (tested in a mixture with another compound)
T/C [6]: 89 % of control | T/C [3]: 91 % of control | T/C (dose: 200.0 mg/kg/injection, schedule: Q01DX009 (ip), vehicle: Klucel (hydroxypropylcellulose) (HPC)): 96 % of control

C=C1C2CCC3(C)C(c4ccoc4)OC(=O)CC13OC1CC(=O)C(C)(C)C(CC(=O)OC)C12C (configuration not stated)
T/C (dose: 2.0 mg/kg/injection, schedule: Q01DX009 (ip), vehicle: Klucel (hydroxypropylcellulose) (HPC)): 100 % of control | T/C (dose: 4.0 mg/kg/injection, schedule: Q01DX009 (ip), vehicle: Klucel (hydroxypropylcellulose) (HPC)): 100 % of control | T/C (dose: 8.0 mg/kg/injection, schedule: Q01DX009 (ip), vehicle: Klucel (hydroxypropylcellulose) (HPC)): 96 % of control | T/C (dose: 16.0 mg/kg/injection, schedule: Q01DX009 (ip), vehicle: Klucel (hydroxypropylcellulose) (HPC)): 100 % of control | T/C (dose: 32.0 mg/kg/injection, schedule: Q01DX009 (ip), vehicle: Klucel (hydroxypropylcellulose) (HPC)): 89 % of control

COC(=O)c1cc(C)c(Br)c(OC)c1
T/C (dose: 12.0 mg/kg/injection, schedule: Q01DX009 (ip), vehicle: Klucel (hydroxypropylcellulose) (HPC)): 95 % of control | T/C (dose: 25.0 mg/kg/injection, schedule: Q01DX009 (ip), vehicle: Klucel (hydroxypropylcellulose) (HPC)): 90 % of control | T/C [6]: 90 % of control

CC(=O)Nc1ccc(/C=C\c2ccnc3ccccc23)cc1
T/C (dose: 33.3 mg/kg/injection, schedule: Q04DX002 (ip), vehicle: saline with Tween-80): 111 % of control | T/C (dose: 50.0 mg/kg/injection, schedule: Q04DX002 (ip), vehicle: saline with Tween-80): 107 % of control | T/C (dose: 75.0 mg/kg/injection, schedule: Q04DX002 (ip), vehicle: saline with Tween-80): 112 % of control

CCN(CC)c1ccc2c(C)cc(=O)oc2c1
T/C (dose: 6.25 mg/kg/injection, schedule: Q01DX009 (ip), vehicle: saline with Tween-80): 100 % of control | T/C (dose: 12.5 mg/kg/injection, schedule: Q01DX009 (ip), vehicle: saline with Tween-80): 94 % of control | T/C [4]: 94 % of control | T/C [5]: 94 % of control | T/C [1]: 92 % of control | T/C [2]: 94 % of control

CCCCC(C#N)(C(=O)OCC)C(C)(C)C (configuration not stated)
T/C (dose: 100.0 mg/kg/injection, schedule: Q01DX009 (ip), vehicle: saline): 109 % of control | T/C (dose: 200.0 mg/kg/injection, schedule: Q01DX009 (ip), vehicle: saline): 118 % of control | T/C (dose: 400.0 mg/kg/injection, schedule: Q01DX009 (ip), vehicle: saline): 90 % of control

OCC(Br)(Br)Br
T/C (dose: 100.0 mg/kg/injection, schedule: Q01DX009 (ip), vehicle: other): 95 % of control | T/C (dose: 200.0 mg/kg/injection, schedule: Q01DX009 (ip), vehicle: other): 95 % of control

Cc1cccc(NC(=O)c2ccccc2C(=O)O)c1C
T/C (dose: 100.0 mg/kg/injection, schedule: Q04DX003 (ip), vehicle: Klucel (hydroxypropylcellulose) (HPC)): 91 % of control | T/C (dose: 200.0 mg/kg/injection, schedule: Q04DX003 (ip), vehicle: Klucel (hydroxypropylcellulose) (HPC)): 91 % of control | T/C (dose: 400.0 mg/kg/injection, schedule: Q04DX003 (ip), vehicle: Klucel (hydroxypropylcellulose) (HPC)): 100 % of control

COc1ccc(Cc2c3ccccc3cc[n+]2C)cc1Oc1ccc(Cc2c3ccccc3cc[n+]2C)cc1
T/C (dose: 0.78 mg/kg/injection, schedule: Q01DX009 (ip), vehicle: saline): 100 % of control | T/C (dose: 1.56 mg/kg/injection, schedule: Q01DX009 (ip), vehicle: saline): 101 % of control
